Data reported in US9975944B2, “Synthetic peptides for the treatment of autoimmune diseases” (TEL HASHOMER MEDICAL RESEARCH INFRASTRUCTURE AND SERVICES …, priority 2013, dated 2018).

Assays:
[1] = tested on: anti citrullinated filaggrin ACPA; assay: Peptide inhibition assay in ELISA, plates coated with cit-filaggrin; design: species or system human; settings: sera of ACPA-positive RA patients diluted to about 50% binding OD, 2 h preincubation at room temperature
Procedure: Peptide inhibition assay in ELISA was used to confirm the cross-reactivity of the Cit-ME peptide to the following anti-citrullinated protein antibodies (ACPA): anti citrullinated filaggrin, anti cit-β-fibrinogen, anti cit-collagen and anti cit-vimentin. Sera were obtained from ACPA RA patients and samples with highly positive ACPA levels were selected (≥100 U/ml) using commercial CCP ELISA test (INOVA). ELISA test was performed with each of the citrullinated peptides: cit-filaggrin (HQCHQESTCitGRSRGRCGRSGS) set forth in SEQ ID NO: 3, cit-β-fibrinogen (CitPAPPPISGGGYCitACit) set forth in SEQ ID NO: 2, cit-collagen (ACitGLTGCitPGDAK) set forth in SEQ ID NO: 21 and cit-vimentin (SAVRACitSSVPGVRK) set forth in SEQ ID NO: 22. Sera were diluted in PBS to obtain a reactivity of approximately 50% binding OD under standard assay conditions. Increasing concentrations of Cit-ME peptide were added to the diluted sera and incubated for two hours at room temperature. Specimens were then assayed in ELISA plates coated with each one of the peptides. […] Thus, ACPA have binding specificity to Cit-ME.

TGF-β = TGF-β gene expression in mononuclear cells derived from synovial fluid of RA patients, real-time PCR; format: cell-based, human; settings: 24 h, compared to the non-citrullinated peptides
Procedure: (§1) To assess the effect of the Cit-ME peptide (SEQ ID NO: 1) on inflammatory related genes expression, peripheral blood mononuclear cells derived from synovial fluid rheumatoid arthritis patients were incubated with the Cit-ME multi-epitope citrullinated peptide for 24 h. The effect of the peptide on gene expression was compared also to the effect of infliximab, a TNF-α blocker, which is an antirheumatic drug that acts as an anti-inflammatory compound. […] Results were determined by real-time PCR.

AIA rats [2] = assay: Histological signs of arthritis in ankle joints of AIA rats; format: in vivo, rat; settings: day 28 post disease induction, H&E, untreated 1.75±0.41
Procedure: To evaluate the histological signs of arthritis, rats were sacrificed and ankle joints were collected on day 28 post disease induction. The joints were fixed immediately for 24 hours in 4% paraformaldehyde, then decalcified in rapid bone decalcifier (RDO; Apex Engineering, Plainfield, Ill., USA) for 6 hours at room temperature, and further fixed in 4% paraformaldehyde before embedding in paraffin. Sections (5 μm thick) were rehydrated in a graded ethanol series and stained with haematoxylin & eosin (H&E). FIGS. 11A to 11C show representative H&E stained joint tissue sections (magnification ×100). Arrowheads denote the infiltrated zones, scale bar=200 μm. The specimens were scored for severity of inflammation in the synovium, pannus formation, cartilage, and bone erosion. A close correlation between the clinical signs and the histopathological findings was found.

IFN-γ = IFN-γ gene expression in mononuclear cells derived from synovial fluid of RA patients, real-time PCR; format: cell-based, human; settings: 24 h, compared to the non-citrullinated peptides
Procedure: as §1

T cells = T cells apoptosis in PBMC of RA patients, annexin V/PI FACS; format: cell-based, human; settings: 24 hours, gated on PI negative cells, compared with matched non-citrullinated peptide
Procedure: To assess the ability of the citrullinated peptides to affect T cells apoptosis, peripheral blood mononuclear cells of rheumatoid arthritis patients were cultured in the presence of citrullinated, non-citrullinated peptides and Infliximab for 24 hours. Cells were double-stained for annexin V-fluorescein isothiocyanate (FITC) and PI-PE (apoptosis/necrosis markers) and analyzed by FACS. The results in FIG. 8 are presented after gating for PI negative cells (live cells). The β-Fib-Cit and Cit-ME (FIGS. 8A and 8B, respectively) induced T cells apoptosis (by 20% and 18%, respectively) as compared with the non-citrullinated peptides Non-Cit-β-Fib (FIG. 8D) and Non-Cit-ME (FIG. 8E). Infliximab induced apoptosis by 28% (FIG. 8C) as compared with the medium control (FIG. 8F).

IL-17 = IL-17 mRNA expression in the spleen of AIA rats, RT-PCR; format: in vivo, rat; settings: spleens of AIA rats, 8 rats per treatment, compared to control
Procedure: To validate the effect of the peptides on CD4^+IL-17^+ populations as determined by FACS, the expression of IL-17 in the spleen was evaluated using RT-PCR. cDNA was extracted from the spleens of 8 rats per treatment (including control), and gene expression of IL-17 was assessed using the following RT-PCR primers: forward 5′-TGGCGGTTCTCCTTCAGTC-3′ (SEQ ID NO: 17) and reverse 5′-[…]-3′ (SEQ ID NO: 18). […] Thus, the RT-PCR data was in line with the FACS analyses.

pathogenic Th17 cells = assay: Pathogenic Th17 cell proportion in PBMC of RA patients, FACS; format: cell-based, human; settings: 48 hours, PMA, ionomycin and brefeldin A in last 4 hours, compared with non-citrullinated matched peptide
Procedure: To assess ability of the citrullinated peptides to affect the pathogenic Th17 cells population proportion, peripheral blood mononuclear cells of rheumatoid arthritis patients were cultured in the presence of citrullinated peptides, non-citrullinated peptides and Infliximab for 48 hours. In the last 4 hours phorbol12-myristate 13-acetate (PMA), ionomycin and brefeldin A were added to the culture. Thereafter cells were stained with antibodies against CD3 and IL-17. As shown in FIGS. 7A-7H, significant down-regulation in the mean percentage of pathogenic Th17 cells was detected following incubation with the citrullinated peptides: decrease of 21% (Fil-Cit; E), 5% (β-Fib-Cit; F), and 26% (Cit-ME; G) as compared with the non-citrullinated matched peptides (FIG. 7A-7C, respectively). Mean percentage of pathogenic Th17 cells in the presence of Infliximab was decreased by 48% (FIG. 7H) as compared to medium (FIG. 7D).

AIA rats [3] = assay: Adjuvant-Induced Arthritis (AIA) in rats, paw swelling and clinical signs; format: in vivo, rat
FAS receptor = assay: FAS mRNA expression in splenocytes of AIA rats, RT-PCR; format: in vivo, rat; settings: compared to Non-Cit-ME and control groups
Procedure: To examine whether Cit-ME affects apoptosis through the FAS receptor pathway, FAS mRNA expression in splenocytes was evaluated (FIG. 14F), using the following RT-PCR primers: forward 5′-TGGCTGTCCTGCCTCTGGT-3′ (SEQ ID NO: 19) and reverse 5′-[…]-3′ (SEQ ID NO: 20).

amount of peptide sufficient to impair binding of specific ACPA to cit-filaggrin [1]: 10 to 200 µg
Substance: VCitLCitSSVESTCitGRSCitPAPPPACitGLT [Cit-ME]
expression of TGF-β (TGF-β): up-regulated
histological inflammatory score (AIA rats [2]): 0.54±0.2
expression of IFN-γ (IFN-γ): down-regulated
induction of T cells apoptosis (T cells): 18%
mean relative expression level of IL-17 mRNA (IL-17): significant reduction
decrease in mean percentage of pathogenic Th17 cells (pathogenic Th17 cells): 26%
mean paw swelling / arthritis signs (AIA rats [3]; AIA Lewis female rats, 10 subcutaneous injections of 300 μg/rat on alternate days from day 7, up to day 21 post disease induction): significant reduced mean paw swelling
maximum value of mean paw diameter (AIA rats [3]; AIA rats, 8 subcutaneous injections of 300 μg per rat on alternate days from day 7, mean±SE, untreated 4.61±0.17 on day 14): 3.81±0.11 mm
arthritis severity / symptoms at day 27 after disease induction (AIA rats [3]; AIA rats, 10 subcutaneous injections of 300 μg/rat on alternate days, compared with β-Fib-Cit and untreated rats): reduced the arthritis severity
mean relative expression level of FAS mRNA (FAS receptor): significantly higher
